This is an account of results in PMC4403045 (EMBO Molecular Medicine, 2015).

For orientation: pIC50 means −log10 of the IC50, conventionally taken in molar units. What is called viability is the share of living cells, or the viability signal relative to a control.

pIC50: −log10 of the molar value. Where two headings read alike, the source gives them in different places. Some results are limits rather than exact numbers.

Data set [1] relates to NCI60 cell lines. Put plainly: GI50 in the NCI60 cell line panel. It counts as cell-based. The note with it: Homo sapiens. The protocol: (§1) Cells were seeded in 96-well plates, treated with different concentrations of drugs for 48 h, and cell viability was analyzed by MTT assays according to manufacturer's protocols. Experiments to determine GI50 with the NCI60 panel cell lines (http://dtp.nci.nih.gov/branches/btb/ivclsp.html) were performed at NCI (Alley et al, [1988]; Shoemaker, [2006]).

Data set [2] deals with MEFs. The data set is described as follows: GI50 in MEFs. It counts as cell-based. The protocol: as §1
Data set [3] addresses HDAC1 (Homo sapiens, UniProt Q13547). Put plainly: in vitro HDAC1 inhibition assay. It counts as biochemical.
The target in data set [4] is HDAC2 (Homo sapiens, UniProt Q92769). The data set is described as follows: in vitro HDAC inhibition assay, HDAC2. In kind it is biochemical.
In data set [5] the target is HDAC3 (Homo sapiens, UniProt O15379). The data set is described as follows: in vitro HDAC inhibition assay, HDAC3. It counts as biochemical.
In data set [6] the target is HDAC4 (Homo sapiens, UniProt P56524). The data set is described as follows: in vitro HDAC inhibition assay, HDAC4. In kind it is biochemical.
Data set [7] addresses T1, HDAC6 (Homo sapiens, UniProt Q9UBN7).
T1 sequence (Q9UBN7 1-1215): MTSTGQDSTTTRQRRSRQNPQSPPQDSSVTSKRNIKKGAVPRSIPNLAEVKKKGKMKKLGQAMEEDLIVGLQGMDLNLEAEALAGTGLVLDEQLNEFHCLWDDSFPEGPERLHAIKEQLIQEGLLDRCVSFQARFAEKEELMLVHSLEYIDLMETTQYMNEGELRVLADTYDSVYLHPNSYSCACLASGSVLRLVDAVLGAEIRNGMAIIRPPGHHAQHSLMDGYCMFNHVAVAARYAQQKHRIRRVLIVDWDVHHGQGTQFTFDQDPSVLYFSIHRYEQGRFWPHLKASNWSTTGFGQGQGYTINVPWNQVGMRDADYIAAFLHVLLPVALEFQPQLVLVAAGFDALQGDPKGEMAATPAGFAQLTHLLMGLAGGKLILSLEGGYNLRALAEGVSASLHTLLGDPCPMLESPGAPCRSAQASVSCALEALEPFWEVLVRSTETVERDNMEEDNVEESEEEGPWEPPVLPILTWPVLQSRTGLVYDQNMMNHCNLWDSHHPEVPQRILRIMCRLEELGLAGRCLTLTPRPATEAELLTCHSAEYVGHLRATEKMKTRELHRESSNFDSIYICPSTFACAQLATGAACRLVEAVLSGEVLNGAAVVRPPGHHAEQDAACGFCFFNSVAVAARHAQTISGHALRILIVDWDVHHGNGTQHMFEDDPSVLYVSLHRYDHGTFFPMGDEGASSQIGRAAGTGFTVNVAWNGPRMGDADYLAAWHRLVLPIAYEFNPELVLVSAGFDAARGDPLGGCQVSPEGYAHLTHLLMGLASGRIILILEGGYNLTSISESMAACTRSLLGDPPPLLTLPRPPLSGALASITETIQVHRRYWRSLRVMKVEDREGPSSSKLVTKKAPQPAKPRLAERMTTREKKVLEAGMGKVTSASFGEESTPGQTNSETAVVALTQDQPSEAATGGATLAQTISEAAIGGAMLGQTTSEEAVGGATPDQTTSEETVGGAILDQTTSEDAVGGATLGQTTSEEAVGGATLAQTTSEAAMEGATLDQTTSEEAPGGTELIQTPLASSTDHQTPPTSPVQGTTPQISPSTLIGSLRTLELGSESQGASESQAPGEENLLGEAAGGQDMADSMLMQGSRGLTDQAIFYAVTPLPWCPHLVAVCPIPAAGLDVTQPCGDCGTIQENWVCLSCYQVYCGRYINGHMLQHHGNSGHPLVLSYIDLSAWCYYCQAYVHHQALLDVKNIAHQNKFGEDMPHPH
Put plainly: in vitro HDAC inhibition assay, HDAC6. It counts as biochemical.

Data set [8] relates to HDAC activities in H1650 cells. Put plainly: histone acetylation markers by Western blot in H1650 cells. In kind it is cell-based. The note with it: 12 h, 20 μM CY, 20 μM CpdA, 200 μM CpdB, 200 μM Bend.
Data set [9] has as its system CBP, TIP60, MORF, and MSL1 expression in H1650 cells. In kind it is cell-based.
Data set [10] is described as follows: maximally tolerated dose in mice. The note with it: female, C57BL/6, mouse, in vivo. The procedure:
(§2) Experimental procedures were approved by the Animal Care and Use Committee of Shanghai Institute of Biochemistry and Cell Biology, Chinese Academy of Sciences. In all, 200 wild-type C57BL/6 mice (6 weeks old, female) were used for determining maximally tolerated dose of CY, and testing CY and other drugs' efficacy in the BCR-ABL ALL model. BCR-ABL cells have been previously described (Williams et al, [2006]). For in vivo experiments, 1 million cells were injected into mice via tail vein (Williams et al, [2006]). At 7 days postinjection, mice were treated with indicated drugs at their MTDs. Mice were monitored daily for survival after drug treatment. Survival curve and statistical analysis were done using the Prism software. For xenograft H460 model, in all, nude mice (8 weeks old, female) were used to test CY and bendamustine's in vivo efficacy. The numbers of mice used in each experimental group are labeled on Fig4.

Data set [11] concerns BCR-ABL Arf−/− murine ALL cells. Put plainly: activity against BCR-ABL ALL cells in vitro. In kind it is cell-based. The procedure: Cell lines were cultured using standard protocols provided by ATCC. Myc Arf^−/− cells were cultured as described (Jiang et al, [2009]). BCR-ABL mouse ALL cells were a kind gift from Dr. Richard Williams. CY190602 and its derivatives compound A and B were synthesized by Dr. Wang's Laboratory (U. New Mexico). Other chemicals were purchased from Selleck, EMD, or VWR. Antibodies against γ-H2AX (Millipore), actin (Sigma), H3K18Ac, H3K9Ac, and H3K56Ac (Cell Signaling) were used for Western blotting.
as §1

For data set [12], the system named is BCR-ABL ALL cells. Put plainly: survival of mice transplanted with BCR-ABL ALL cells. It counts as in vivo. The settings on record: for survival extension: treatment at MTD, mice transplanted with BCR-ABL ALL cells. The protocol: as §2, with “BCR-ABL cells have been previously described (Williams et al, [2006]). For in vivo experiments, 1 million cells were injected into mice via tail vein (Williams et al, [2006]).” left out

For data set [13], the system named is human NSCLC cell line H460. Put plainly: H460 xenograft in nude mice. It counts as in vivo. The note with it: single dose CY 20, 40, 60 mg/kg; bendamustine 40 mg/kg. The procedure: as §2
Data set [14] has as its system human CLL cells. It counts as cell-based.
Data set [15] in a line: viability of healthy primary B cells. In kind it is cell-based. The note with it: human, healthy primary CD19+ B cells from blood donors, 20 μM CY. From the text: This study was approved by the ethics committee of the University of Cologne (approval 01-163). Blood samples were obtained from patients fulfilling diagnostic criteria for CLL with informed consent according to the Helsinki protocol. Only patients without prior therapy or at least 12 months without prior chemotherapy were included in this study. Fresh blood samples were enriched by applying B-RosetteSep (StemCell Technologies, Vancouver, Canada) to aggregate unwanted cells with erythrocytes and Ficoll-Hypaque (Seromed, Berlin, Germany) density gradient purification resulting in purity > 98% of CD19^+/CD5^+ CLL cells. CLL cells were characterized for CD19, CD5, CD23, FMC7, CD38, ZAP-70, slgM, slgG, CD79a, and CD79b expression on a FACSCanto flow cytometer (BD PharMingen, Heidelberg, Germany). Controls were isolated from healthy blood donors using anti-CD19 MACS beads (Miltenyi, Bergisch Gladbach, Germany) resulting in at least 95% CD19^+ B cells.
Apoptosis was determined by flow cytometry using Annexin V-FITC/7AAD staining (BD PharMingen) after 72 h. […] The fraction of viable cells was determined by counting annexin V/7-AAD double-negative cells for each individual dosage. Median values were subsequently applied for regression analysis and calculation of the half-maximal dosage effect (IC50). […] IC50 values were determined by fitting data to the Hill equation y = y0 + (axb)/(cb+xb).

Data set [16] relates to human AML cells. Put plainly: patient derived xenograft mouse model of human AML. The note with it: done by other collaborators; review file.
Data set [17] concerns HDAC1-6. The data set is described as follows: cell-free HDAC activity assays, HDAC1-6 overall. It counts as biochemical. The settings on record: Fig2A and 2B.
The conditions of data set [18]: mice; ref according to the literature; cited from earlier work.
Data set [19] relates to human cancer cell lines. The data set is described as follows: cancer cell killing / MTT viability (LD50). It counts as cell-based.
The subject of data set [20] is γ-H2AX in H1650 cells. The data set is described as follows: γ-H2AX Western blot (DNA damage) in H1650 cells. The note with it: 12 h. In kind it is cell-based.
Setting [21] is: median over NCI60 cell lines, read-out: median growth inhibitor concentration (GI50).
[22] abbreviates: H1650 cells, 6 h, bendamustine 350 μM, CY 15 μM, SAHA 10 μM.

Chain of HDAC1 (Q13547 whole entry): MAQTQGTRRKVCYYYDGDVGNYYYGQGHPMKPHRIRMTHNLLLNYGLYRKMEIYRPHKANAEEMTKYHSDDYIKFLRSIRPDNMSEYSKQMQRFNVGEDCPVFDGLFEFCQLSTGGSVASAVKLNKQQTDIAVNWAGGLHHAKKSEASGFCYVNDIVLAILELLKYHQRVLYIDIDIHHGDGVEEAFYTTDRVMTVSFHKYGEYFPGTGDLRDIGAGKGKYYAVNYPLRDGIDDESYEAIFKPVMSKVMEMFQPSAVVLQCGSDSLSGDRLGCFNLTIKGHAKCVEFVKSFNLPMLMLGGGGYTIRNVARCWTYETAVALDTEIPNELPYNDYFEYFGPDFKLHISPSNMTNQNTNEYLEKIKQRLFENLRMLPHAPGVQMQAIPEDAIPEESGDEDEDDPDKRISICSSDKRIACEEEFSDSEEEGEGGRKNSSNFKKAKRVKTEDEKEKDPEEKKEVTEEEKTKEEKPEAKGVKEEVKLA
Chain of HDAC3 (O15379 whole entry): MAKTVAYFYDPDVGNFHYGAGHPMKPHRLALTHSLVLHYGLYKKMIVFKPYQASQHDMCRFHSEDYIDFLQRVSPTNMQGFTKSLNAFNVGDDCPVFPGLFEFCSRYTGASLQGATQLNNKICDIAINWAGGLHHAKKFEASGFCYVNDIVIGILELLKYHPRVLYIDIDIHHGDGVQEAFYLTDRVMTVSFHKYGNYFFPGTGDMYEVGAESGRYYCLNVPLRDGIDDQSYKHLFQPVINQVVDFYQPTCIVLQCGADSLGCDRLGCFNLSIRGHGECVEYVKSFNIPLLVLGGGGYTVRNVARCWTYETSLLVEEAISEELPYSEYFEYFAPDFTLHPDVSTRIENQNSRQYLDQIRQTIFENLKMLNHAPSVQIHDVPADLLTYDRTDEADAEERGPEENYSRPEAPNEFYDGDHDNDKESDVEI
Chain of HDAC3 (Q9Y618 395-489 partner limits assumed): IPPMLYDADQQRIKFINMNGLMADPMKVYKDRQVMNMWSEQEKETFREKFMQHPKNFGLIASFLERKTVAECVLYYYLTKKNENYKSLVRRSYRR
Chain of HDAC2 (Q92769 whole entry): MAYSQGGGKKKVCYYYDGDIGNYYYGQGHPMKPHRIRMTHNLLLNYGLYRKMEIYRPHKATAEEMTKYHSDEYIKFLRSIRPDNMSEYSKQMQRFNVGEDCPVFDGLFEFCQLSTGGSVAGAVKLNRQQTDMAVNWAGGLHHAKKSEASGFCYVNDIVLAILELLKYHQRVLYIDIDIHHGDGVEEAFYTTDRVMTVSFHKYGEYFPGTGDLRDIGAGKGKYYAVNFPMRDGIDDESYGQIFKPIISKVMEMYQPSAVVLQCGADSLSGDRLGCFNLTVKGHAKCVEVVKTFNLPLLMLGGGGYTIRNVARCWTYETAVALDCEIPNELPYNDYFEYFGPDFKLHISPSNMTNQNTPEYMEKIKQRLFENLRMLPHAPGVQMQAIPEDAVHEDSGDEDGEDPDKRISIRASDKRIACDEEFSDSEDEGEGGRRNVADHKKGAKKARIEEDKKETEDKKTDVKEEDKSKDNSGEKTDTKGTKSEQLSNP
Chain of HDAC4 (P56524 whole entry): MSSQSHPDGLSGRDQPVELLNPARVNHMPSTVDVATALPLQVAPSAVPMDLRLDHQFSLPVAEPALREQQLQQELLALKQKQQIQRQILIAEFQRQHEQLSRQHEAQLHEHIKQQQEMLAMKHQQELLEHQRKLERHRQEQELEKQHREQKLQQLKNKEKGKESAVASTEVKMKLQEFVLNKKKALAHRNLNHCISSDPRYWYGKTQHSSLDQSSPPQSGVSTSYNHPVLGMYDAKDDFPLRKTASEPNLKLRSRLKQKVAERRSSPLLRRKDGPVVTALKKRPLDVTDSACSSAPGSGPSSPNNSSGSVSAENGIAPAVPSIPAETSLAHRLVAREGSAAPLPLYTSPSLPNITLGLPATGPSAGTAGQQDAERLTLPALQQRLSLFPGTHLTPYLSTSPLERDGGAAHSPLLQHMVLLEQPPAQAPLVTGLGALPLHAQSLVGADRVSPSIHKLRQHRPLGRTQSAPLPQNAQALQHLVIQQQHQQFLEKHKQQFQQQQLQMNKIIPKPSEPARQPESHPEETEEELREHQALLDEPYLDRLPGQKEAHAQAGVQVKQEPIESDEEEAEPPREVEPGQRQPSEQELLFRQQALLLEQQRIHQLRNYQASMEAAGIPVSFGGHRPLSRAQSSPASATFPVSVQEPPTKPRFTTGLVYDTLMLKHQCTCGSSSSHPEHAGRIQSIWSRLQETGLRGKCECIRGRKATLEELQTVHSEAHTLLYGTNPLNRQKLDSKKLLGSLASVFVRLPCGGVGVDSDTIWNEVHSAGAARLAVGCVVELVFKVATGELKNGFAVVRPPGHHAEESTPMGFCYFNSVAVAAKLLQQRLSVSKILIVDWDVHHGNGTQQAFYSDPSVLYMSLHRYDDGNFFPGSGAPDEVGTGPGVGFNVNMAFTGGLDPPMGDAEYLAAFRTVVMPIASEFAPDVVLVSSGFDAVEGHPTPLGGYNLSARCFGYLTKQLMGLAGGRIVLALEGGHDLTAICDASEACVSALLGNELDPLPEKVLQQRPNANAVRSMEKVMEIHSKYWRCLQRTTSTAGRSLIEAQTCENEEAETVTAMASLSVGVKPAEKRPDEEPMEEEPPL

In the case of `Cn1c(CCCCCCC(=O)NO)nc2cc(N(CCCl)CCCl)ccc21` [CY190602], the GI50 turned out to be 3.2 µM in data set [1] (average over NCI60 cell lines, read-out: average GI50); 2.2 µM in data set [1] (setting [21]); 57 µM in [2]. The pIC50 in data set [3] (HDAC1 Assay (plot legend value), Fig 2A upper panel) is 8.05; in data set [3] (IC50 of CY, HDAC1, Fig 2A lower panel), 7.77; in [4], 8.00; in data set [5], 7.60; in data set [6] it was 8.19; in [7] it was 7.14. For the same compound, in data set [8], the “inhibition of HDAC activities in cancer cells (histone acetylation markers)” value (from here on “inhibition of HDAC activities”) is reported as “inhibited HDAC activities”. The “expression of Tip60, CBP, MORF and MSL1” value in [9] (setting [22]) is listed as “greatly suppressed”. Also, the MTD in data set [10] was found to be 60 mg/kg. Further, the “activity in cultured BCR-ABL ALL cells compared with bendamustine” value in data set [11] is “more active than bendamustine”. For the same compound, the “survival extension compared with cyclophosphamide, doxorubicin, cytarabine, and vincristine” value in data set [12] (drugs at MTD) was “superior to these drugs”. In data set [12], this compound yielded a survival extension of 14 days. For the same compound, the “anticancer activity in H460 xenograft compared with bendamustine” value in data set [13] is given as “superior to bendamustine”. Moreover, in data set [14] (5 μM, 72 h), the “CLL cells killed at 5 μM” value is reported as “nearly all”. The compound further showed a viability at 72 h, 20 μM in data set [15] of approximately 40%. Besides, the “effect on AML cells” value in data set [16] was “nearly eliminated AML cells”. For the same compound, in [16], the “effect on mouse CD45+ (hematopoeitc lineage) cells” value is “minimal effect”.

Regarding `Nc1ccn([C@@H]2O[C@H](CO)[C@@H](O)[C@@H]2O)c(=O)n1` [Cytarabine, reference compound], in data set [16], the “effect on AML cells” value is on record as “didn’t kill AML cells as quickly, or as thoroughly as did CY” and the “effect on mouse CD45+ (hematopoeitc lineage) cells” value is given as “nearly wiped out CD45+ cells”.

With `CC(C)n1nc(-c2cc3cc(O)ccc3[nH]2)c2c(N)ncnc21` [PP242], in [12] (daily dose), the “survival extension, daily treatment” value is 8 days.

In the case of `O=C(CCCCCCC(=O)Nc1ccccc1)NO` [SAHA], the “expression of Tip60, CBP, MORF and MSL1” value in [9] was “significant suppression”. Moreover, in data set [12], the survival extension result is recorded as “approximately 2 days”.

For `Cn1c(CCCC(=O)O)nc2cc(N(CCCl)CCCl)ccc21` [bendamustine], the GI50 is 77 µM in [1] (setting [21]); more than 100 µM in data set [1] (read-out: GI50 for most cancer cell lines of the NCI 60 test); approximately 390 µM in data set [2] (MEFs, authors' response in review file). For the same compound, in data set [17], the “HDAC inhibition” value is “inability to inhibit HDAC”. In addition, the “inhibition of HDAC activities” value in data set [8] is given as “not”. The “expression of Tip60, CBP, MORF and MSL1” value in data set [9] (setting [22]) is “not”. In [12], this compound had a survival extension of approximately 5 days. Moreover, the “CLL cells killed at 100 μM” value in data set [14] (100 μM, 72 h) is on record as “about 80%”. Besides, the MTD in data set [18] was 40 mg/kg.

Regarding `Cn1c(CCCCCCC(=O)NO)nc2cc(N(CCO)CCO)ccc21` [compound A], the “synergy with bendamustine in killing cancer cells” value in data set [19] (nontoxic dose of Cpd A plus bendamustine) is on record as “significantly synergized with bendamustine”. In addition, the “killing of cancer cells” value in [19] (up to 200 μM, 48 h) is listed as “very ineffective in killing cancer cells”. Besides, the “inhibition of HDAC activities” value in [8] is on record as “inhibited HDAC activities”. In addition, in [20] (100 μM Bend plus 50 μM Cpd A), the “level of γ-H2AX in bendamustine-treated cells” value was “significantly increased”. Further, the “DNA damage (γ-H2AX) by the compound alone” value in data set [20] (H1650 cells) is given as “did not cause DNA damage”.

On to `Cn1c(CCCCCCC(=O)O)nc2cc(N(CCCl)CCCl)ccc21` [compound B], for which the “inhibition of HDAC activities” value is “little HDAC inhibitory activity” in data set [8] and “not” in [8] (listed as CpdB).

For the compound `Nc1nc(F)nc2c1ncn2[C@@H]1O[C@H](CO)[C@@H](O)[C@@H]1O` [fludarabine], the “CLL cells killed at 100 μM” value in data set [14] was “about 80%”.
